From PMC9241695, “Selective Metal Chelation by a Thiosemicarbazone Derivative Interferes with Mitochondrial Respiration and Ribosome Biogenesis in Candida albicans” (Microbiology Spectrum, 2022) come the findings set out here.

Assay [1] deals with C. albicans CAF2-1, zap1Δ/Δ, zap1Δ/Δ+ pZAP1. Briefly: Growth of zap1 mutant, complemented and wild-type strains under 19ak. Type of assay: cell-based, Candida albicans. On the procedure: FIG 6 Effect of 19ak on ribosome biogenesis in C. albicans. (A to C) The wild strain CAF2-1, the mutant strain zap1Δ/Δ and its complemented strain zap1Δ/Δ+ pZAP1 were adjusted to 1 × 10^5 cells/mL in RPMI 1640 medium and treated with 0.25 or 0.5 μg/mL 19ak for 15 h at 30°C. Cell growth was monitored by detecting the optical density at 600 nm in a microplate reader. (A) Cells that were not treated with 19ak as a control. (B) Cells treated with 0.25 μg/mL 19ak. (C) Cells treated with 0.5 μg/mL 19ak. Each point represents the mean of three replicates. The OD600 values at the final detection point were used to analyze significant differences. (D) C. albicans zap1Δ/Δ and its complemented strain zap1Δ/Δ + pZAP1 were treated with 0.5 μg/mL 19ak for 6 h at 30°C. The transcription levels of several genes associated with ribosomal biosynthesis were determined by qPCR. The bars represent means ± SD from three independent experiments. *, P < 0.05; **, P < 0.01; ***, P < 0.001. ns, nonsignificance. (E) qPCR analysis of the expression of genes associated with iron and zinc homeostasis after TPEN treatment. C. albicans SC5314 was cultured in RPMI 1640 medium and treated with 0.05 μg/mL or 0.2 μg/mL TPEN for 6 h at 30°C for qPCR analysis.

A further assay concerns CAT. Put plainly: Catalase (CAT) activity in treated cells. To be noted: 0.5 μg/mL or above, 6 h. Type of assay: cell-based. On the procedure:
Determination of SOD activity. SOD activity was measured using the Superoxide Dismutase Activity Assay Kit (Njjcbio, Nanjing, China) following the manufacturer's instructions. An overnight culture of C. albicans SC5314 was adjusted to 1 × 10^7 cells/mL with RPMI1640 medium and treated with 19ak at a final concentration of 0, 0.125, 0.25, 0.5, or 1 μg/mL for 6 h. After collection by centrifugation, the cells were broken by glass beads in extraction buffer and centrifuged at 4°C. The absorbance of the supernatant of each sample was measured with a microplate reader at450 nm.
Determination of catalase (CAT) activity. CAT activity was measured by using a Catalase Assay Kit (Solarbio, Beijing, China) following the manufacturer's instructions. An overnight culture of C. albicans SC5314 was adjusted to 1 × 10^6 cells/mL with RPMI1640 medium and treated as described above for SOD activity.
The decomposition of H2O2 is directly accompanied by a decrease in absorbance at 240 nm, and the difference in absorbance per unit time (ΔA240) is a measure of […]
Quantitative real-time polymerase chain reaction (qPCR) analysis. C. albicans SC5314 cells (1 × 10^6 cells/mL) were incubated with or without 19ak (0.5,2 μg/mL) in RPMI1640 medium for 6 h. Total RNA was extracted using the hot phenol method, and the RNA quality was analyzed using a spectrophotometer (Eppendorf, Hamburg, Germany). […]

Another assay concerns A. fumigatus AF293. Briefly: Antifungal susceptibility testing, microbroth dilution MIC. Type of assay: cell-based. The settings on record: Aspergillus fumigatus, AF293; standard strain of A. fumigatus; 48 h; read-out: MIC (μg/mL) against fungi AF293. The method, boiled down:
(§1)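 CLSI microbroth dilution in RPMI1640, final drug range 0.0156–64 μg/mL. Inocula 1 × 10^3 CFU/mL for C. albicans and C. neoformans, 1 × 10^4 CFU/mL for A. fumigatus; 35°C for 24 h (C. albicans) or 48 h (C. neoformans, A. fumigatus). MIC read as visible growth inhibition versus control, in duplicate.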

The subject of the next assay is C. neoformans H99. Described as above. In kind it is cell-based. To be noted: Cryptococcus neoformans, H99; C. neoformans wild-type strain; 48 h; read-out: MIC (μg/mL) against fungi H99. In short, it runs like this:
as §1

A further assay has as its system C. albicans SC5314 cells. Briefly: Intracellular labile zinc levels using Zinbo-5. In kind it is cell-based, Candida albicans. The settings on record: 6 h. On the procedure:
C. albicans SC5314 cells grown overnight were pelleted, washed three times with PBS buffer, and resuspended to obtain an OD600 of 2.0. Next, the cells were incubated with various concentrations of 19ak in 96-well plates at 30°C for 6 h, followed by incubation with 10 μM Zinbo-5 for 30 min. Finally, fluorescence was measured in a microplate reader (excitation at 355 nm, emission at 485 nm). Similar approach was used in detection of intracellular zinc levels of mammalian cells.

In brackets after ≈: the same amount, converted by molar mass.

In the case of `C/C(=N\NC(=S)N(C)C)c1ccccn1` [Compound 19ak], in assay [1] (100 μM Zn^2+ added), the “Activity against CAF2-1, zap1Δ/Δ and complemented strain with exogenous Zn^2+” value is given as “lost the activities”. Besides, the “Growth of zap1 mutant versus complemented strain” value in assay [1] (0.25 or 0.5 μg/mL, 15 h, 30°C) is “more severe growth defects”. For the same compound, the CAT activity result with CAT is recorded as “increased”. The MIC in the assay on A. fumigatus AF293 and in the assay on C. neoformans H99 was 0.5 µg/mL (≈ 2.25 µM) each time. The “Labile zinc ions (Zinbo-5 fluorescence)” value in the assay with C. albicans SC5314 cells (0.125 μg/mL) is reported as “decreased”. In the assay on C. albicans SC5314 cells (1 μg/mL), the “Reduction of intracellular zinc ions” value is “approximately 59.6%”.
